What was measured:
Nampt = biological target: T1, Nampt (Homo sapiens, UniProt P43490); experiment: Nicotinamide phosphoribosyltransferase (Nampt/PBEF) activity in SMC lysates, [14C]nicotinamide to NMN; assay type: cell-based; settings: human Nampt cDNA by retrovirus
T1 construct: endogenous in cells; host or cells: human vascular SMCs (primary and HITC6), whole cell lysates
Description: Nicotinamide Phosphoribosyltransferase Activity. […] Labelled acetone-precipitable nicotinamide mononucleotide was quantified by scintillation counting.
Assessment of Nicotinamide Phosphoribosyltransferase Activity. […] Briefly, SMCs were lysed in buffer containing 10 mM NaH2PO4/Na2HPO4, at pH 8.8. Cell lysates were incubated with 0.5 μM [carbonyl-^14C]nicotinamide and 0.5 mM phosphoribosylpyrophosphate for 4 h on a rotating rocker at 37° C.

SIRT1 [1] = experiment: Western blot of SIRT1 protein expression in SMCs; assay type: cell-based, human; settings: PBEF overexpression; p=0.02
Description: Western Blot and Immunoprecipitation Analysis. Protein expression was assessed by Western blot analysis with chemiluminescence detection, as previously described (Rocnik, 2002). PBEF was detected using a rabbit polyclonal anti-human PBEF/Pre-B-cell colony enhancing factor antibody (Bethyl Laboratories, Montgomery, Tex.). SIRT1 was detected using a rabbit polyclonal anti-SIRT1 antibody (Abcam, Cambridge, Mass.) and p53 and α-tubulin were detected with monoclonal antibodies (CO-1, Santa Cruz, Calif. and Clone B-5-1-1, Sigma, Oakville, ON, respectively). Cytoplasmic p53 was similarly assessed following cell fractionation (NucBuster, Novagen Minneapolis, Minn.). Identification of p53 that underwent NAD^+-dependent removal of an acetyl group on residue K382 was determined by pretreating SMCs for 2 h with 5 μM trichostatin A (TSA), immunoprecipitating p53 from the cell lysate with a goat polyclonal antibody (R&D Systems, Minneapolis, Minn.), and immunoblotting using a rabbit polyclonal anti-acetylated p53 (K382) antibody (American Proteomics, Carlsbad, Calif.) and HRP-labelled donkey anti-rabbit IgG antibody (Amersham, Piscataway, N.J.).
Western Blot Analysis. Protein expression was assessed by Western blot analysis of confluent cultured SMCs, as previously described (Rocnik et al., 2002). […] Signal was detected by chemiluminescence (Pierce, Rockford, Ill., USA).

HITB5 SMC's = experiment: DNA synthesis ([3H]thymidine incorporation); assay type: cell-based, human; settings: PBEF-overexpressing HITB5 SMCs
Description: Cell Proliferation, DNA Synthesis, and Apoptosis were also evaluated. To assess SMC proliferation, cells were plated at a density of 3000 cells per cm^2 and cultured in M199 containing 5% FBS. Triplicate wells were harvested at the designated times and counted using a hemacytometer. To quantify DNA synthesis, cells in log-phase growth were incubated for 12 hours with [^3H]thymidine (10 μCi/mL) and TCA-precipitable counts determined as described (5). Thymidine incorporation was expressed relative to DNA content, quantified by spectrofluorimetry of an aliquot of cell lysate incubated with 500 μg/ml Hoechst 33258. Apoptosis was assessed in SMCs seeded on glass coverslips by in situ end-labeling of DNA fragments using terminal deoxynucleotide transferase and fluorescein 12-dUTP (Promega) (5). Cells were fixed with 4% paraformaldehyde and counterstained with Hoechst 33258.

SIRT1 [2] = experiment: SIRT1 deacetylase activity in live SMCs (Fluor de Lys-SIRT1 substrate, TSA-independent); assay type: cell-based, human; settings: SMCs overexpressing Nampt; p=0.03, n=4
Description: In vivo assessment of SIRT1 deacetylase activity. Cell-based assessment of SIRT1-like enzymatic activity was performed using the Fluor de lys-SIRT1 substrate (Biomol, Plymouth Meeting, Pa.), as previously described (de Boer, 2006). SMCs in phenol-red free M199 with 5% FBS were incubated for 2 h with 5 μM TSA followed by addition of the fluorogenic substrate for 4 h. Signal was quantified by spectrofluorimetry (Wallac, Wellesley, Mass.) and normalized to total protein content.
Assessment of SIRT1 Deacetylase Activity. SIRT1 deacetylase activity was quantified in live cells as previously reported (de Boer et al, 2006). SMCs cultured in phenol red-free M199 were incubated without serum for 2 h with 1 μM trichostatin A (Sigma, St. Louis, Mo., USA) followed by addition of 25 μM Fluor-de-Lys-SIRT1 fluorogenic substrate (Biomol, Plymouth Meeting, Pa., USA) for 4 h. Media containing fluorogenic substrate and reaction product was incubated with an equal volume of SIRT1 assay buffer containing 2 mM nicotinamide and developer (Biomol, Plymouth Meeting, Pa., USA). Signal was quantified by spectrofluorometry (Wallac VICTOR-1420, PerkinElmer Life Science, Waltham, Mass., USA) and normalized to total protein content

T1 sequence (P43490 whole entry): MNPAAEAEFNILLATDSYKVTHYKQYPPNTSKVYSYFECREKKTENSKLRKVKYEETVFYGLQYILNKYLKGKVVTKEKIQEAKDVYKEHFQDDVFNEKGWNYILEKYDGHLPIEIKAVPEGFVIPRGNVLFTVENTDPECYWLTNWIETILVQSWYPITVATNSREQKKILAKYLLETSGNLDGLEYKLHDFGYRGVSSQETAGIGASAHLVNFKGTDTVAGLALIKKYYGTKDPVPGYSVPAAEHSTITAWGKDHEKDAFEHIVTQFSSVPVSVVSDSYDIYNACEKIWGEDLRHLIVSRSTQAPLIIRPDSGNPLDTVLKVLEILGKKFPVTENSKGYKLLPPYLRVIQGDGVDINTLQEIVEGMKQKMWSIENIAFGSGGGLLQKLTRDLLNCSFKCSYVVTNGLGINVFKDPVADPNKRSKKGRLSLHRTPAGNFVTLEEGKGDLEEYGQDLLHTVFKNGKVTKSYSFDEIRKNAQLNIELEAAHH

With “PBEF: 52-55 kD protein, rate-limiting enzyme for NAD+ biosynthesis from nicotinamide; tested by retroviral cDNA overexpression in cells” the “increase in Nampt activity in stably transduced SMCs” value (Nampt) was 7.1±3.1 fold, the “abundance of SIRT1 protein” value (SIRT1 [1]) was 1.3±0.3 fold and the “thymidine incorporation vs control cells” value (HITB5 SMC's) was “no detectable difference”. The “increase in SIRT1 activity” value (SIRT1 [2]) was 86±4%.
